System: chPylRS
Test: aminoacylation of […]-labeled tRNA
Type: biochemical, Methanosarcina mazei; Methanosarcina barkeri
Details: read-out: KM (mM), ncAA; M. mazei tRNA(Pyl) transcript, 10 mM ATP, 10 mM MgCl2, pH 7.2, 37 °C

| Compound | Km |
| --- | --- |
| C[C@@H]1CC=N[C@H]1C(=O)NCCCC[C@H](N)C(=O)O [compound 1, Pyl] | 0.0076 ± 0.0002 mM |
| CC(C)(C)OC(=O)NCCCC[C@H](N)C(=O)O [compound 12, BocK] | 2.91 ± 0.1 mM |
